How the values were obtained:
human PPARγ = target: T1, human PPARγ (Homo sapiens, UniProt P37231); assay: PPARγ activation test (GAL-4/luciferase reporter in NIH/3T3 cell); type: cell-based; conditions: GAL-4/human PPARγ LBD luciferase reporter, 24 hrs incubation
T1 construct: expressed in transfected cells; host or cells: NIH/3T3 cells (mouse fibroblasts)
T1 sequence (P37231 238-503 limits assumed): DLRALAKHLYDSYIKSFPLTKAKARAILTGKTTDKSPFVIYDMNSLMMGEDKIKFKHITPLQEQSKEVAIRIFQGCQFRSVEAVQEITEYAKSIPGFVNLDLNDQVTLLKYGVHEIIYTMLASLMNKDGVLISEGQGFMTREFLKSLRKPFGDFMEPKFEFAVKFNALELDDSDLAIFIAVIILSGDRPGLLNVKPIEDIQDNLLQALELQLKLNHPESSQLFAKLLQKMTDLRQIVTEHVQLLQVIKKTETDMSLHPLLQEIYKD
Experimental: The activity for PPARγ activation was examined as follows.
The vector fused with the ligand binding domain of a human PPARγ gene and the DNA binding site of a yeast GAL-4 gene, and luciferase reporter vector were simultaneously transfected in NIH/3T3 cell. The cells were cultured for 24 hrs. The solution containing the cells at a concentration of 2×10^4 cells/well was placed on a 96-well plate. Then, each of the test compounds of the present invention or the control group without test compounds was added thereto. After incubating for 24 hrs, the cells were subjected to lysis.

[1] = Adverse side effects check (weight, heart weight, liver weight, GPT/GOT) in high fat diet C57/BL6J mice; type: in vivo; conditions: for GOT / GPT / Heart Weight / Liver Weight / Weight: high fat diet C57/BL6J mice, oral administration for 14 days
Experimental: To check possible adverse side effects caused by the administration of the compound, the weight, heart weight and liver weight of each mouse were measured. GPT and GOT values were also calculated by employing a kit available in the market.

ob/ob mice = assay: Effectiveness in lowering blood glucose level in ob/ob mice; type: in vivo
Experimental: The resulting solution was intraperitoneally administered to the mice at a dose of 50 mg/kg, once a day for 5 days, or orally administered to the mice, at a dose of 100 mg/kg, twice a day for 14 days. Days 1, 3 and 5 were selected for intraperitoneal administration, and days 5, 10 and 14, for oral administration, to collect blood samples for measuring the blood glucose levels. […] Upon the completion of the oral administration for 14 days, the mice were fasted for 16 hrs to perform OGTT (Oral Glucose Tolerance Test) to determine the changes in insulin sensitivity induced by the oral administration. After administrating glucose to the mice at a dose of 2 g/kg orally, blood samples were collected at 0, 15, 30 60 and 120 minutes to measure blood glucose levels.

C57/BL6J mice = assay: Suppression of blood glucose and insulin levels in high fat diet C57/BL6J mice; type: in vivo
Source text: Days 1, 3 and 5 were selected for intraperitoneal administration, and days 5, 10 and 14, for oral administration, to collect blood samples for measuring the blood glucose levels. […] Upon the completion of the oral administration for 14 days, the mice were fasted for 16 hrs to perform OGTT (Oral Glucose Tolerance Test) to determine the changes in insulin sensitivity induced by the oral administration. After administrating glucose to the mice at a dose of 2 g/kg orally, blood samples were collected at 0, 15, 30 60 and 120 minutes to measure blood glucose levels.
The extents of suppression of blood glucose and insulin levels were measured as mentioned above. To check possible adverse side effects caused by the administration of the compound, the weight, heart weight and liver weight of each mouse were measured. GPT and GOT values were also calculated by employing a kit available in the market.

[2] = high fat diet C57/BL6J mice, after 14 days oral administration
[3] = high fat diet C57/BL6J mice, oral administration once a day for 14 days

Compound | EC50 (human PPARγ) [µM] | melting point [°C] | other results
CC(C)NC(=O)C1=C(c2ccccc2)c2ccc(OCCCc3ccccc3)cc2/C1=[N+](/C)[O-] [Compound 38, 1-(trans-methylimino-N-oxy)-3-phenyl-6-(3-phenylpropoxy)-1H-indene-2-carboxylate isopropyl amide] | 0.17 | – | –
CC(C)NC(=O)C1=C(c2ccccc2)c2cc(OCCN3CCOCC3)ccc2/C1=[N+](/C)[O-] [Compound 100, 1-(trans-methylimino-N-oxy)-5-(2-morpholine-4-ylethoxy)-3-phenyl-1H-indene-2-carboxylate isopropyl amide] | – | 134 to 137 | –
CN(CCOc1ccc(CC2SC(=O)NC2=O)cc1)c1ccccn1 (stereo not shown) [Rosiglitazone, reference compound] | – | – | GOT [1]: 70 ± 8.2 karmen; GPT [1]: 85 ± 12/ karmen; Heart Weight [1]: 0.140 ± 0.009 g; Liver Weight [1]: 1.56 ± 0.18 g; Weight [1]: 39 ± 1.6 g
C/[N+]([O-])=C1\C(C#N)=C(c2ccccc2)c2ccc(OCCCc3ccccc3)cc21 [Compound 75, 1-(trans-methylimino-N-oxy)-3-phenyl-6-(3-phenylpropoxy)-1H-indene-2-carbonitrile] | 0.095 | 126 to 128 | –
C/[N+]([O-])=C1\C(C(N)=O)=C(c2ccccc2)c2ccc(OCCCc3ccccc3)cc21 [Compound 73, 1-(trans-methylimino-N-oxy)-3-phenyl-6-(3-phenylpropoxy)-1H-indene-2-carboxylate amide] | 0.11 | – | –
CCOC(=O)C1=C(c2ccccc2)c2ccc(OCCc3ccc(CC)cn3)cc2/C1=[N+](/C)[O-] [Compound 79, 6-[2-(5-ethylpyridine-2-yl)ethoxy]-1-(trans-methylimino-N-oxy)-3-phenyl-1H-indene-2-carboxylate ethyl ester] | 0.02 | – | –
CC(C)NC(=O)C1=C(c2ccccc2)c2ccc(OCCc3ccccn3)cc2/C1=[N+](/C)[O-] [Compound 80, 1-(trans-methylimino-N-oxy)-3-phenyl-6-(2-pyridine-2-ylethoxy)-1H-indene-2-carboxylate isopropyl amide] | 0.1 | 124 to 126 | –
1-hydroxy-6-(2-morpholine-4-yl-ethoxy)-1,3-diphenyl-1H-indene-2-carboxylic acid ethyl ester [Example 8] | – | – | GOT [1]: 39 ± 7.8 karmen; GPT [1]: 29 ± 3.2/ karmen; Heart Weight [1]: 0.123 ± 0.007 g; Liver Weight [1]: 1.06 ± 0.17 g; Weight [1]: 35 ± 1.1 g; side effects (weight gain, hepatotoxicity, cardiotoxicity) ([1]; summary of Tables 6, 7 and 8): no side effects such as weight gain, hepatotoxicity or cardiotoxicity; % Inhibition, Oral Glucose Tolerance Test (Blood Glucose) (ob/ob mice; ob/ob mice after 14 days oral administration, fasted 16 hrs, glucose 2 g/kg orally, total blood glucose over 120 minutes): 10.2%; % Inhibition, blood glucose, Intraperitoneal Administration (50 mg/kg/day) (ob/ob mice; ob/ob mice, i.p. 50 mg/kg once a day for 5 days, relative to control): 32.0%; % Inhibition, blood glucose, Oral Administration (100 mg/kg/day) (ob/ob mice; ob/ob mice, oral 100 mg/kg twice a day for 14 days, relative to control): 23.7%; effect in lowering blood glucose and insulin levels (C57/BL6J mice; administered orally or intraperitoneally, summary of Tables 6, 7 and 8): excellent effect in lowering both blood glucose and insulin levels; % Inhibition, Oral Glucose Tolerance Test (Glucose) (C57/BL6J mice; [2]): 23.8%; % Inhibition, Oral Glucose Tolerance Test (Insulin) (C57/BL6J mice; [2]): 56.2%; % Inhibition, Blood glucose concentration (C57/BL6J mice; [3]): 30.0%; % Inhibition, Blood insulin concentration (C57/BL6J mice; [3]): 44.6%
C/[N+]([O-])=C1\C(C(=O)NC2CCCCC2)=C(c2ccccc2)c2ccc(OCCN3CCOCC3)cc21 [Compound 41, 1-(trans-methylimino-N-oxy)-6-(2-morpholine-4-yl-ethoxy)-3-phenyl-1H-indene-2-carboxylate cyclohexyl amide] | 0.012 | – | –
CCOC(=O)C1=C(c2ccccc2)c2ccc(COCCc3ccccc3)cc2/C1=[N+](/C)[O-] [Compound 43, 1-(trans-methylimino-N-oxy)-6-phenethyloxymethyl-3-phenyl-1H-indene-2-carboxylate ethyl ester] | 0.08 | – | –
CCOC(=O)C1=C(c2ccccc2)c2cc3c(cc2/C1=[N+](/C)[O-])OCO3 [Compound 48, 1-(trans-methylimino-N-oxy)-5,6-methylenedioxy-1-oxo-3-phenyl-1H-indene-2-carboxylate ethyl ester] | 0.01 | 119 to 121 | –
C/[N+]([O-])=C1\C(C(=O)NC2CCCCC2)=C(c2ccccc2)c2ccc(OCCCc3ccccc3)cc21 [Compound 39, 1-(trans-methylimino-N-oxy)-3-phenyl-6-(3-phenylpropoxy)-1H-indene-2-carboxylate cyclohexyl amide] | 0.045 | – | –
CCOC(=O)C1=C(c2ccccc2)c2ccc(OCCN3CCOCC3)cc2/C1=[N+](/C)[O-] [Compound 33, 1-(trans-methylimino-N-oxy)-6-(2-morpholine-4-ylethoxy)-3-phenyl-1H-indene-2-carboxylate ethyl ester] | – | 102 to 104 | –
CC(C)OC(=O)C1=C(c2ccccc2)c2ccc(OCCN3CCOCC3)cc2/C1=[N+](\C)[O-] [Compound 101, 1-(cis-methylimino-N-oxy)-6-(2-morpholine-4-ylethoxy)-3-phenyl-1H-indene-2-carboxylate isopropyl ester] | – | 153 to 155 | –
CC(C)NC(=O)C1=C(c2ccccc2)c2cc(OCCc3ccccn3)ccc2/C1=[N+](/C)[O-] [Compound 99, 1-(trans-methylimino-N-oxy)-3-phenyl-5-(2-pyridine-2-ylethoxy)-1H-indene-2-carboxylate isopropyl amide] | – | 158 to 159 | –
CC(C)NC(=O)C1=C(c2ccccc2)c2ccc(OCCN3CCOCC3)cc2/C1=[N+](/C)[O-] [Compound 50, 1-(trans-methylimino-N-oxy)-6-(2-morpholine-4-ylethoxy)-3-phenyl-1H-indene-2-carboxylate isopropyl amide] | 0.2 | 123 to 125 | –
CCc1ccc(CCOc2ccc3c(c2)/C(=[N+](/C)[O-])C(C(=O)NC(C)C)=C3c2ccccc2)nc1 [Compound 81, 6-[2-(5-ethylpyridine-2-yl)ethoxy]-1-(trans-methylimino-N-oxy)-3-phenyl-1H-indene-2-carboxylate isopropyl amide] | 0.045 | – | –
CCOC(=O)C1=C(c2ccccc2)c2ccc(CN3CCOCC3)cc2/C1=[N+](/C)[O-] [Compound 77, 1-(trans-methylimino-N-oxy)-6-morpholine-4-ylmethyl-3-phenyl-1H-indene-2-carboxylate ethyl ester] | 0.17 | – | –
CCOC(=O)C1=C(c2ccccc2)c2cc(OCCCc3ccccc3)ccc2/C1=[N+](/C)[O-] [Compound 42, 1-(trans-methylimino-N-oxy)-3-phenyl-5-(3-phenylpropoxy)-1H-indene-2-carboxylate ethyl ester] | 0.08 | – | –
CCOC(=O)C1=C(c2ccccc2)c2ccc(OCCCCCc3ccccc3)cc2/C1=[N+](/C)[O-] [Compound 15, 1-(trans-methylimino-N-oxy)-3-phenyl-6-(5-phenylpentyloxy)-1H-indene-2-carboxylate ethyl ester] | 0.15 | – | –
CC(C)OC(=O)C1=C(c2ccccc2)c2ccc(OCCN3CCOCC3)cc2/C1=[N+](/C)[O-] [Compound 8] | 0.025 | 79 to 81 | –
CC(C)NC(=O)C1=C(c2csc3ccccc23)c2ccc(OCCN3CCOCC3)cc2/C1=[N+](/C)[O-] [Compound 94, 3-benzo-[b]-thiophene-3-yl-1-(trans-methylimino-N-oxy)-6-(2-morpholine-4-ylethoxy)-1H-indene-2-carboxylate isopropyl amide] | 0.08 | 77 to 79 | –
CCOC(=O)C1=C(C2CC2)c2ccc(OCCCc3ccccc3)cc2/C1=[N+](/C)[O-] [Compound 68, 3-cyclopropyl-1-(trans-methylimino-N-oxy)-6-(3-phenylpropoxy)-1H-indene-2-carboxylate ethyl ester] | 0.01 | – | –
C/[N+]([O-])=C1\C=C(c2ccccc2)c2ccc(OCCN3CCOCC3)cc21 [Compound 82, methyl-[6-(2-morpholine-4-ylethoxy)-3-phenylindene-1-yllidene]amine-N-oxide] | – | 122 to 123 | –
CCOC(=O)C1=C(c2ccccc2)c2ccc(OCCN3CCOCC3)cc2/C1=[N+](\C)[O-] [Compound 45, 1-(cis-methylimino-N-oxy)-6-(2-morpholine-4-ylethoxy)-3-phenyl-1H-indene-2-carboxylate ethyl ester] | – | 151 to 152 | –
CCOC(=O)C1=C(c2ccccc2)c2ccc(OCCC3CCCCC3)cc2/C1=[N+](/C)[O-] [Compound 25, 6-(2-cyclohexylethoxy)-1-(trans-methylimino-N-oxy)-3-phenyl-1H-indene-2-carboxylate ethyl ester] | 0.05 | – | –

From patent US7741323B2, “Indene derivatives and process for the preparation thereof” (Korea Research Institute of Chemical Technology, priority 2004, dated 2010)
